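Protocol summary: plate cells (96-well), add compound at 5 concentrations, incubate 48 h, interpolate endpoints linearly. TGI denotes the concentration required for complete inhibition of growth.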
What was measured:
Assay in all cases: DTP human tumour cell line panel, 48 h
[1] = system: 786-0 renal
[2] = system: A498 renal
[3] = system: A549 NSCLC
[4] = system: ACHN renal
[5] = system: CAKI-1 renal
[6] = system: CCRF-CEM leukemia
[7] = system: COLO 205 colon
[8] = system: DU-145 prostate
[9] = system: EKVX NSCLC
[10] = system: HCC-2998 colon
[11] = system: HCT-116 colon
[12] = system: HCT-15 colon
[13] = system: HL-60(TB) leukemia
[14] = system: HOP-62 NSCLC
[15] = system: HS 578T breast
[16] = system: HT29 colon
[17] = system: IGROV1 ovarian
[18] = system: K-562 leukemia
[19] = system: KM12 colon
[20] = system: LOX IMVI melanoma
[21] = system: M14 melanoma
[22] = system: MALME-3M melanoma
[23] = system: MCF7 breast
[24] = system: MDA-MB-231 breast
[25] = system: MDA-MB-435
[26] = system: MDA-N
[27] = system: NCI-H226 lung
[28] = system: NCI-H23 lung
[29] = system: NCI-H460 lung
[30] = system: NCI-H522 lung
[31] = system: NCI/ADR-RES ovarian
[32] = system: OVCAR-3 ovarian
[33] = system: OVCAR-4 ovarian
[34] = system: OVCAR-8 ovarian
[35] = system: PC-3 prostate
[36] = system: RXF 393 renal
[37] = system: SF-268 CNS
[38] = system: SF-295 CNS
[39] = system: SF-539 CNS
[40] = system: SK-MEL-2 melanoma
[41] = system: SK-MEL-28 melanoma
[42] = system: SK-MEL-5 melanoma
[43] = system: SK-OV-3 ovarian
[44] = system: SN12C renal
[45] = system: SNB-19 CNS
[46] = system: SNB-75 CNS
[47] = system: SW-620 colon
[48] = system: T-47D breast
[49] = system: TK-10 renal
[50] = system: U251 CNS
[51] = system: UACC-257 melanoma
[52] = system: UACC-62 melanoma
[53] = system: UO-31 renal
[54] = system: BT-549 breast
[55] = system: HOP-92 NSCLC
[56] = system: OVCAR-5 ovarian
[57] = system: RPMI-8226 leukemia
[58] = system: SR leukemia

Q: For `Nc1cnc(Nc2cccc3ccccc23)o1`, which TGI [1] is on record?
A: > 10 µM

Q: What about the TGI [2] of the same molecule?
A: > 10 µM

Q: And the TGI [3]?
A: > 10 µM

Q: What about the TGI [4] of the same molecule?
A: > 10 µM

Q: And the TGI [5]?
A: > 10 µM

Q: What about the TGI [6] of the same molecule?
A: > 10 µM

Q: What about the TGI [7] of the same molecule?
A: > 10 µM

Q: What about the TGI [8] of the same molecule?
A: > 10 µM

Q: What about the TGI [9] of the same molecule?
A: > 10 µM

Q: And the TGI [10]?
A: > 10 µM

Q: And the TGI [11]?
A: > 10 µM

Q: What about the TGI [12] of the same molecule?
A: > 10 µM

Q: And the TGI [13]?
A: > 10 µM

Q: What about the TGI [14] of the same molecule?
A: > 10 µM

Q: What about the TGI [15] of the same molecule?
A: > 10 µM

Q: And the TGI [16]?
A: > 10 µM

Q: What about the TGI [17] of the same molecule?
A: > 10 µM

Q: What about the TGI [18] of the same molecule?
A: > 10 µM

Q: What about the TGI [19] of the same molecule?
A: > 10 µM

Q: What about the TGI [20] of the same molecule?
A: > 10 µM

Q: What about the TGI [21] of the same molecule?
A: > 10 µM

Q: What about the TGI [22] of the same molecule?
A: > 10 µM

Q: What about the TGI [23] of the same molecule?
A: > 10 µM

Q: What about the TGI [24] of the same molecule?
A: > 10 µM

Q: And the TGI [25]?
A: > 10 µM

Q: What about the TGI [26] of the same molecule?
A: > 10 µM

Q: What about the TGI [27] of the same molecule?
A: > 10 µM

Q: And the TGI [28]?
A: > 10 µM

Q: And the TGI [29]?
A: > 10 µM

Q: What about the TGI [30] of the same molecule?
A: > 10 µM

Q: And the TGI [31]?
A: > 10 µM

Q: And the TGI [32]?
A: > 10 µM

Q: What about the TGI [33] of the same molecule?
A: > 10 µM

Q: What about the TGI [34] of the same molecule?
A: > 10 µM

Q: What about the TGI [35] of the same molecule?
A: > 10 µM

Q: And the TGI [36]?
A: > 10 µM

Q: And the TGI [37]?
A: > 10 µM

Q: And the TGI [38]?
A: > 10 µM

Q: And the TGI [39]?
A: > 10 µM

Q: And the TGI [40]?
A: > 10 µM

Q: What about the TGI [41] of the same molecule?
A: > 10 µM

Q: What about the TGI [42] of the same molecule?
A: > 10 µM

Q: And the TGI [43]?
A: > 10 µM

Q: What about the TGI [44] of the same molecule?
A: > 10 µM

Q: And the TGI [45]?
A: > 10 µM

Q: And the TGI [46]?
A: > 10 µM

Q: And the TGI [47]?
A: > 10 µM

Q: And the TGI [48]?
A: > 10 µM

Q: What about the TGI [49] of the same molecule?
A: > 10 µM

Q: What about the TGI [50] of the same molecule?
A: > 10 µM

Q: What about the TGI [51] of the same molecule?
A: > 10 µM

Q: What about the TGI [52] of the same molecule?
A: > 10 µM

Q: What about the TGI [53] of the same molecule?
A: > 10 µM

Q: For `C[Si](C)(C)CNC(=O)OCc1ccccc1`, which TGI [1] is on record?
A: > 100 µM

Q: What about the TGI [2] of the same molecule?
A: > 100 µM

Q: What about the TGI [3] of the same molecule?
A: > 100 µM

Q: And the TGI [4]?
A: > 100 µM

Q: And the TGI [54]?
A: > 100 µM

Q: And the TGI [5]?
A: > 100 µM

Q: What about the TGI [6] of the same molecule?
A: > 100 µM

Q: And the TGI [7]?
A: > 100 µM

Q: And the TGI [8]?
A: > 100 µM

Q: And the TGI [9]?
A: > 100 µM

Q: What about the TGI [10] of the same molecule?
A: > 100 µM

Q: And the TGI [11]?
A: > 100 µM

Q: What about the TGI [12] of the same molecule?
A: > 100 µM

Q: What about the TGI [13] of the same molecule?
A: > 100 µM

Q: And the TGI [14]?
A: > 100 µM

Q: And the TGI [55]?
A: > 100 µM

Q: What about the TGI [16] of the same molecule?
A: > 100 µM

Q: What about the TGI [17] of the same molecule?
A: > 100 µM

Q: What about the TGI [18] of the same molecule?
A: > 100 µM

Q: What about the TGI [19] of the same molecule?
A: > 100 µM

Q: What about the TGI [20] of the same molecule?
A: > 100 µM

Q: And the TGI [21]?
A: > 100 µM

Q: And the TGI [23]?
A: > 100 µM

Q: And the TGI [24]?
A: > 100 µM

Q: And the TGI [25]?
A: > 100 µM

Q: And the TGI [26]?
A: > 100 µM

Q: What about the TGI [27] of the same molecule?
A: > 100 µM

Q: What about the TGI [28] of the same molecule?
A: > 100 µM

Q: What about the TGI [29] of the same molecule?
A: > 100 µM

Q: And the TGI [30]?
A: > 100 µM

Q: What about the TGI [31] of the same molecule?
A: > 100 µM

Q: What about the TGI [32] of the same molecule?
A: > 100 µM

Q: What about the TGI [33] of the same molecule?
A: > 100 µM

Q: What about the TGI [56] of the same molecule?
A: > 100 µM

Q: And the TGI [34]?
A: > 100 µM

Q: And the TGI [35]?
A: > 100 µM

Q: What about the TGI [57] of the same molecule?
A: > 100 µM

Q: What about the TGI [37] of the same molecule?
A: > 100 µM

Q: And the TGI [38]?
A: > 100 µM

Q: What about the TGI [39] of the same molecule?
A: > 100 µM

Q: And the TGI [40]?
A: > 100 µM

Q: And the TGI [41]?
A: > 100 µM

Q: And the TGI [42]?
A: > 100 µM

Q: And the TGI [43]?
A: > 100 µM

Q: What about the TGI [44] of the same molecule?
A: > 100 µM

Q: And the TGI [45]?
A: > 100 µM

Q: What about the TGI [46] of the same molecule?
A: > 100 µM

Q: And the TGI [58]?
A: > 100 µM

Q: What about the TGI [47] of the same molecule?
A: > 100 µM

Q: What about the TGI [48] of the same molecule?
A: 72.4 µM

Q: And the TGI [49]?
A: > 100 µM

Q: And the TGI [50]?
A: > 100 µM

Q: And the TGI [51]?
A: > 100 µM

Q: And the TGI [52]?
A: > 100 µM

Q: And the TGI [53]?
A: > 100 µM

Reference: PubChem BioAssay (NCI)
